Assays:
[1] = human, in vivo, 7 days
P. aeruginosa = assay: Baseline susceptibility testing of cUTI isolates, CLSI broth microdilution; type: cell-based, Pseudomonas aeruginosa; conditions: comparators
Procedure: (§1) 764 isolates of Gram-negative aerobic organisms were isolated from 800 patients in the microbiological modified intent-to-treat population (enrolled in 20 countries in Eastern Europe, North America, South America and 5 countries outside of these regions). Susceptibility (S) testing was performed with ceftolozane/tazobactam at a fixed 4 μg/mL of tazobactam and 10 antibiotic comparators using CLSI broth microdilution methods. ESBL enzymes were identified by PCR.

E. coli = assay: as above; type: cell-based, Escherichia coli
Procedure: as §1

Escherichia coli [2] = assay: Phase 3 cUTI study, per pathogen microbiological eradication; type: in vivo; conditions: levofloxacin-resistant population, ME
From the text: (§2) The primary efficacy endpoint was the composite microbiological and clinical cure response at the test-of-cure (TOC) visit in the microbiologically modified intent-to-treat (mMITT) population, which included all patients who received study medication and had at least 1 baseline uropathogen. The key secondary efficacy endpoint was the composite microbiological and clinical cure response at the TOC visit in the microbiologically evaluable (ME) population, which included protocol-adherent mMITT patients with a urine culture at the TOC visit.

Enterobacteriaceae = assay: as above; type: in vivo; conditions: levofloxacin-resistant population, ME
From the text: as §2

Pseudomonas aeruginosa [3] = assay: as above; type: in vivo; conditions: levofloxacin-resistant population, ME
From the text: as §2

Klebsiella pneumoniae [4] = assay: as above; type: in vivo; conditions: levofloxacin-resistant population, ME
From the text: as §2

[5] = tested on: complicated urinary tract infections (including pyelonephritis); assay: Phase 3 study of complicated urinary tract infections, composite microbiological and clinical cure at TOC visit; type: in vivo, human; conditions: for Composite Cure Rate at TOC: levofloxacin-resistant population
From the text: as §2

gram-negative pathogens = assay: Baseline susceptibility testing of cUTI isolates, CLSI broth microdilution; type: cell-based; conditions: mMITT population; ceftolozane/tazobactam breakpoint ≦8 mg/1, levofloxacin CLSI criteria
Procedure: as §1

[6] = Phase 1 single dose PK of 750 mg ceftolozane/tazobactam in severe renal impairment and ESRD on hemodialysis (Example 8); type: in vivo, human
Procedure: This was a Phase 1, multicenter, prospective, open-label study of 750 mg ceftolozane/tazobactam (as CXA-201) administered IV in male and female adult subjects with severe renal impairment (estimated CLCR<30 mL/min) and subjects with end-stage renal disease (ESRD) on hemodialysis (HD). The primary objective of the study was to determine the PK profile of ceftolozane/tazobactam in subjects with severe renal impairment and subjects with ESRD on HD and to determine the effect of HD on the clearance of ceftolozane/tazobactam.
Subjects with severe renal impairment received a single IV 1-hour infusion of 750 mg ceftolozane/tazobactam on Day 1. […] Subjects in this cohort received an IV dose of 750 mg ceftolozane/tazobactam as a 1 hour infusion immediately after their first HD session on Day 1 (postdialysis, approximately 72 hours prior to the next HD session) and a second dose of ceftolozane/tazobactam approximately 2 hours before their second HD session on Day 4 of the study. Infusion of ceftolozane/tazobactam was completed approximately 1 hour before the start of HD.
Subjects in both cohorts had urine (if not anuric) and plasma samples collected for determination of levels of ceftolozane, tazobactam and the M1 metabolite of tazobactam; subjects in the ESRD on HD cohort also had dialysate fluid samples collected for PK assessment. Plasma, urine, and dialysate levels of ceftolozane, tazobactam, and its metabolite M1 collected over a prespecified interval were determined by LC/MS/MS assay.
All subjects underwent hemodialysis for 3 to 4 hours using a high-flux membrane (either 1.4, 1.8, or 1.9 m^2) on Days 1, 4, and 6 as scheduled. Average blood flow rate was 264 to 600 mL/min and average dialysis flow rate was either 600 or 800 mL/min for all subjects with ESRD.

Bacteroides ovatus = assay: Phase 3 cIAI study, per pathogen clinical cure; type: in vivo; conditions: ME population
Procedure: (§3) A total of 979 adults hospitalized with complicated intra-abdominal infections were randomized and received study medications in a multinational, double-blind study comparing CXA-201 (1.5 g IV every 8 hours) plus metronidazole (500 mg IV every 8 hours) to meropenem (1 g IV every 8 hours) for 4 to 14 days of therapy. Complicated intra-abdominal infections included appendicitis, cholecystitis, diverticulitis, gastric/duodenal perforation, perforation of the intestine, and other causes of intra-abdominal abscesses and peritonitis. The primary efficacy endpoint was clinical response at the test-of-cure (TOC) visit in the microbiological intent-to-treat (MITT) population, which included all patients who had at least 1 baseline intra-abdominal pathogen. The key secondary efficacy endpoint was clinical response at the TOC visit in the microbiologically evaluable (ME) population, which included all protocol-adherent MITT patients.

Bacteroides vulgatus = assay: Phase 3 cIAI study, per pathogen clinical cure; type: in vivo; conditions: ME population
Procedure: as §3

Aerobic Gram-positive = assay: Phase 3 cIAI study, per pathogen clinical cure; type: in vivo; conditions: ME population
Procedure: as §3

Aerobic Gram-negative = assay: Phase 3 cIAI study, per pathogen clinical cure; type: in vivo; conditions: ME population
Procedure: as §3

Enterobacter cloacae = assay: Phase 3 cIAI study, per pathogen clinical cure; type: in vivo; conditions: ME population
Procedure: as §3

Bacteroides fragilis = assay: Phase 3 cIAI study, per pathogen clinical cure; type: in vivo; conditions: ME population
Procedure: as §3

Escherichia coli [7] = assay: Phase 3 cIAI study, per pathogen clinical cure; type: in vivo; conditions: ME population
Procedure: as §3

Proteus mirabilis = assay: Phase 3 cIAI study, per pathogen clinical cure; type: in vivo; conditions: ME population
Procedure: as §3

Anaerobic Gram-negative = assay: Phase 3 cIAI study, per pathogen clinical cure; type: in vivo; conditions: ME population
Procedure: as §3

Streptococcus anginosus = assay: Phase 3 cIAI study, per pathogen clinical cure; type: in vivo; conditions: ME population
Procedure: as §3

Pseudomonas aeruginosa [8] = assay: Phase 3 cIAI study, per pathogen clinical cure; type: in vivo; conditions: ME population
Procedure: as §3

Klebsiella oxytoca = assay: Phase 3 cIAI study, per pathogen clinical cure; type: in vivo; conditions: ME population
Procedure: as §3

Klebsiella pneumoniae [9] = assay: Phase 3 cIAI study, per pathogen clinical cure; type: in vivo; conditions: ME population
Procedure: as §3

Streptococcus salivarius = assay: Phase 3 cIAI study, per pathogen clinical cure; type: in vivo; conditions: ME population
Procedure: as §3

[10] = tested on: Streptococcus constellatus; assay: Phase 3 cIAI study, per pathogen clinical cure; type: in vivo; conditions: ME population
Procedure: as §3

[11] = tested on: Bacteroides thetaiotaomicron; assay: Phase 3 cIAI study, per pathogen clinical cure; type: in vivo; conditions: ME population
Procedure: as §3

[12] = tested on: complicated intra-abdominal infections; assay: Phase 3 study of complicated intra-abdominal infections, clinical response at TOC visit; type: in vivo, human
Procedure: as §3

[13] = ESRD on HD, second IV infusion of 750 mg on Day 4 (during HD)
[14] = ESRD on HD, second infusion Day 4, start of infusion to end of dialysis
[15] = severe renal impairment, single IV 1-hour infusion of 750 mg ceftolozane/tazobactam

C[C@H]1COc2c(N3CCN(C)CC3)c(F)cc3c(=O)c(C(=O)O)cn1c23 [Levofloxacin]
adverse event gastrointestinal symptoms [1]: 11.4%
adverse event headache [1]: 4.9%
incidence of treatment-limiting adverse events [1]: < 2%
patients with adverse events [1]: 34.4%
susceptibility of isolates (P. aeruginosa): 35.0%
MIC50 (E. coli; E. coli baseline isolates): 0.03 mg/1
MIC90 (E. coli; E. coli baseline isolates): > 4 mg/1
E. coli isolates susceptible (E. coli; mMITT population, regardless of ESBL phenotype): 74.1%
Per-pathogen Microbiological Eradication Rate at TOC (Escherichia coli [2]): 44.1%
Per-pathogen Microbiological Eradication Rate at TOC (Enterobacteriaceae): 45.2%
Per-pathogen Microbiological Eradication Rate at TOC (Pseudomonas aeruginosa [3]): 37.5 (3/8) %
Per-pathogen Microbiological Eradication Rate at TOC (Klebsiella pneumoniae [4]): 30.0 (3/10) %
Composite microbiological and clinical cure rate at TOC visit ([5]; ME population): 266/353 (75.4) %
Composite Cure Rate at TOC ([5]; ME): 43.4%
Composite Cure Rate at TOC ([5]; mMITT): 39.3%
Composite microbiological and clinical cure rate at TOC visit ([5]; mMITT population): 275/402 (68.4) %
gram-negative pathogens isolated at baseline susceptible (gram-negative pathogens): 70.7%

C[C@](Cn1ccnn1)([C@@H](N)C(=O)O)S(=O)O [M1 Metabolite]
Cmax, Mean (CV %) ([6]; ESRD on HD, Day 1 IV infusion of 750 mg (non-hemodialysis phase)): 10.0 (40) μg/mL
AUClast, Mean (CV %) ([6]; ESRD on HD, Day 1 IV infusion of 750 mg (non-hemodialysis phase), through 48 hours): 367 (42) μg·h/mL
Cmax, Mean (CV %) [6, 13]: 10.8 (46) μg/mL
tmax, Median (minimum, maximum) [6, 13]: 1.5 (0.5, 24.0) h
AUClast, Mean (CV %) ([6]; ESRD on HD, second IV infusion of 750 mg on Day 4 (during HD), through 44 hours): 176 (40) μg·h/mL
AUClast, Mean (CV %) ([6]; ESRD on HD, second infusion Day 4, approximately 6 hours from start of infusion to end of dialysis): 23.8 (44) μg·h/mL
Cmax, Mean (CV %) [6, 14]: 10.6 (49) μg/mL
t1/2, Mean (CV %) [6, 14]: 1.54 (48) h
tmax, Median (minimum, maximum) [6, 14]: 1.5 (0.5, 1.5) h
AUC∞, Mean (CV %) [6, 15]: 60.3 (30) μg·h/mL
t1/2, Mean (CV %) [6, 15]: 12.0 (29) h
Cmax, Mean (CV %) ([6]; severe renal impairment, single IV 1-hour infusion of 750 mg ceftolozane/tazobactam, plasma): 2.2 (20) μg/mL
AUClast, Mean (CV %) ([6]; severe renal impairment, single IV 1-hour infusion of 750 mg ceftolozane/tazobactam, plasma, through 48 hours): 53.7 (25) μg·h/mL
Exposure (AUC48h) After HD (Day 1), Median (Range) ([6]; subjects with ESRD): 389 (99.8 − 538) μg·h/mL
Exposure (AUC48h) During HD (Day 3), Median (Range) ([6]; subjects with ESRD): 182 (78 − 255) μg·h/mL
removed by dialysis ([6]; subjects with ESRD on HD): ~51%
AUC48h Ratio (Day 3:1), Median (Range) ([6]; subjects with ESRD, during HD vs after HD): 0.49 (0.38 − 0.78)
Percent Removed, Median (Range) ([6]; subjects with ESRD, hemodialysis): 51 (22 − 63) Percent

C[C@@H](O)[C@H]1C(=O)N2C(C(=O)O)=C(S[C@@H]3CN[C@H](C(=O)N(C)C)C3)[C@H](C)[C@H]12 [Meropenem]
Per pathogen clinical cure rate (Bacteroides ovatus): 42/42 (100) %
Per pathogen clinical cure rate (Bacteroides vulgatus): 21/22 (95.5) %
Per pathogen clinical cure rate (Aerobic Gram-positive): 170/185 (91.9) %
Per pathogen clinical cure rate (Aerobic Gram-negative): 273/291 (93.8) %
Per pathogen clinical cure rate (Enterobacter cloacae): 22/22 (100) %
Per pathogen clinical cure rate (Bacteroides fragilis): 56/57 (98.2) %
Per pathogen clinical cure rate (Escherichia coli [7]; Escherichia coli): 216/231 (93.5) %
Per pathogen clinical cure rate (Escherichia coli [7]; Escherichia coli (CTX-M-14/15 ESBL-producing)): 7/9 (77.8) %
Per pathogen clinical cure rate (Escherichia coli [7]; Escherichia coli (EBSL-producing)): 18/20 (90.0) %
Per pathogen clinical cure rate (Proteus mirabilis): 9/10 (90.0) %
Per pathogen clinical cure rate (Anaerobic Gram-negative): 132/137 (96.4) %
Per pathogen clinical cure rate (Streptococcus anginosus): 23/23 (100) %
Per pathogen clinical cure rate (Pseudomonas aeruginosa [8]): 27/29 (93.1) %
Per pathogen clinical cure rate (Klebsiella oxytoca): 21/22 (95.5) %
Per pathogen clinical cure rate (Klebsiella pneumoniae [9]; Klebsiella pneumonia): 22/25 (88.0) %
Per pathogen clinical cure rate (Klebsiella pneumoniae [9]; Klebsiella pneumoniae (CTX-M-15 ESBL-producing)): 7/9 (77.8) %
Per pathogen clinical cure rate (Klebsiella pneumoniae [9]; Klebsiella pneumoniae (ESBL-producing)): 3/4 (75.0) %
Per pathogen clinical cure rate (Streptococcus salivarius): 8/8 (100) %
Per pathogen clinical cure rate [10]: 20/23 (87.0) %
Per pathogen clinical cure rate [11]: 40/43 (93.0) %
Clinical cure rate at TOC visit ([12]; ME population): 304/321 (94.7) %
Clinical cure rate at TOC visit ([12]; MITT population): 364/417 (87.3) %
